Data: patent US6855518B2, “Anti-listeria bacteriocin” (Rhodia Chimie, priority 2000, dated 2005)
“Also recorded” adds a separate entry of the source. Ends that are not written are not given here.

Assays:
L. ivanovi BUG 496 = test: Well test of bacteriocin activity (inhibition zones on agar); assay type: cell-based, Listeria ivanovii
Method: (§1) • Bacterial strains and culture media. Lactobacillus sakei 2512 is cultured at 30° C. in MRS medium (DIFCO Laboratories) sterilised for 12 minutes at 110° C. The indicator strains are cultured in BHI medium (brain-heart infusion; DIFCO Laboratories) at 37° C. • Test of activity. BHI medium, supplemented with 10 g/l agar, is inoculated at 1% with a preculture of the indicator strain in stationary phase before being poured into a Petri dish. 50 microliters of sakacin G solution are placed in wells formed in cooled agar with a hole punch. The bacteriocin activity manifests itself in the appearance of inhibition zones around the wells after incubation overnight at 37° C. • Protein analysis. Sakacin G is analysed by mass spectrometry using a Perkin-Elmer Sciex API 165 device equipped with an Ionspray ionisation source. After lyophilisation, the active HPLC fraction is taken up in an acetonitrile/water solution (1:1) containing 0.1% formic acid, and then injected by infusion at a rate of 5 μl/minute.
(§2) The sakacin G sensitivity of 17 bacterial strains was tested by the well test method (see Materials and Methods).

Lb. Plantarum DSM 20174 = test: as above; assay type: cell-based, Lactobacillus plantarum
Method: as §1, §2

Lb. sakei 2515 = test: as above; assay type: cell-based, Lactobacillus sakei
Method: as §1, §2

Listeria strains = test: Inhibition spectrum, for Listeria; assay type: cell-based; conditions: all the Listeria strains tested
Method: as §1, §2

E. faecium ENSAIA 631 = test: Well test of bacteriocin activity (inhibition zones on agar); assay type: cell-based, Enterococcus faecium
Method: as §1, §2

E. durans ENSAIA 630 = test: as above; assay type: cell-based, Enterococcus durans
Method: as §1, §2

Lb. casei DSM 20011 = test: as above; assay type: cell-based, Lactobacillus casei
Method: as §1, §2

Lb brevis DSM 20054 = test: as above; assay type: cell-based, Lactobacillus brevis
Method: as §1, §2

E. faecalis IP 5430 = test: as above; assay type: cell-based, Enterococcus faecalis; conditions: 50 microliters of sakacin G solution, BHI agar, overnight at 37° C.
Method: as §1, §2

E. faecalis ENSAIA 636 = test: as above; assay type: cell-based, Enterococcus faecalis; conditions: 50 microliters of sakacin G solution, BHI agar, overnight at 37° C.
Method: as §1, §2

Enterococcus faecalis = test: Inhibition spectrum, Enterococcus faecalis; assay type: cell-based
Method: as §1, §2

P. cerevisiae IP 5492 = test: Well test of bacteriocin activity (inhibition zones on agar); assay type: cell-based, Pediococcus cerevisiae
Method: as §1, §2

[1] = tested on: Lb. Delbrueckii DSM 20081; test: as above; assay type: cell-based
Method: as §1, §2

[2] = tested on: Ln. Mesenteroides DSM 20240; test: as above; assay type: cell-based; conditions: 50 microliters of sakacin G solution, BHI agar, overnight at 37° C.
Method: as §1, §2

[3] = tested on: P. acidilactici ENSAIA 583; test: as above; assay type: cell-based; conditions: 50 microliters of sakacin G solution, BHI agar, overnight at 37° C.
Method: as §1, §2

Lc. lactis ATCC11454 = test: as above; assay type: cell-based; conditions: 50 microliters of sakacin G solution, BHI agar, overnight at 37° C.
Method: as §1, §2

L. inocua 8811 = test: as above; assay type: cell-based; conditions: 50 microliters of sakacin G solution, BHI agar, overnight at 37° C.
Method: as §1, §2

[4] = tested on: Ln. Mesenteroides DSM 20484; test: as above; assay type: cell-based; conditions: 50 microliters of sakacin G solution, BHI agar, overnight at 37° C.
Method: as §1, §2

[5] = tested on: Ln. Paramesenteroides DSM 20288; test: as above; assay type: cell-based; conditions: 50 microliters of sakacin G solution, BHI agar, overnight at 37° C.
Method: as §1, §2

sakacin G: class IIa anti-Listeria bacteriocin polypeptide from Lactobacillus sakei 2512, about 3834 Da, two disulfide bridges; mature sequence SEQ ID NO: 12 (KYYGNGVSCNSHGCSVNWGQAWTCGVNHLANGGHGVC; disulfide (positions not given here))
Activity of the purified HPLC fraction (in words) (L. ivanovi BUG 496; HPLC fraction, peak at 23 minutes, Listeria ivanovii BUG 496): active
Radius of the inhibition halos (L. ivanovi BUG 496; well test, 50 microliters of sakacin G solution, BHI agar, overnight at 37° C., L. ivanovi BUG 496): 6 mm
Bacteriocin activity (in words) (Lb. Plantarum DSM 20174; Lactobacillus plantarum): inactive
Radius of the inhibition halos (Lb. Plantarum DSM 20174; well test, 50 microliters of sakacin G solution, BHI agar, overnight at 37° C., Lb. Plantarum DSM 20174): 0 mm
Bacteriocin activity (in words) (Lb. sakei 2515; strains of Lactobacillus sakei other than Lactobacillus sakei 2512): especially effective
Radius of the inhibition halos (Lb. sakei 2515; well test, 50 microliters of sakacin G solution, BHI agar, overnight at 37° C., Lb. sakei 2515): 1 mm
Bacteriocin activity (in words) (Listeria strains): especially effective; also recorded: active
Bacteriocin activity (in words) (E. faecium ENSAIA 631; Enterococcus faecium): inactive; also recorded: not against Enterococcus faecium
Radius of the inhibition halos (E. faecium ENSAIA 631; well test, 50 microliters of sakacin G solution, BHI agar, overnight at 37° C., E. faecium ENSAIA 631): 0 mm
Bacteriocin activity (in words) (E. durans ENSAIA 630; Enterococcus durans): especially effective; also recorded: active
Radius of the inhibition halos (E. durans ENSAIA 630; well test, 50 microliters of sakacin G solution, BHI agar, overnight at 37° C., E. durans ENSAIA 630): 2 mm
Bacteriocin activity (in words) (Lb. casei DSM 20011; Lactobacillus casei): inactive
Radius of the inhibition halos (Lb. casei DSM 20011; well test, 50 microliters of sakacin G solution, BHI agar, overnight at 37° C., Lb. casei DSM 20011): 0 mm
Bacteriocin activity (in words) (Lb brevis DSM 20054; Lactobacillus brevis): inactive
Radius of the inhibition halos (Lb brevis DSM 20054; well test, 50 microliters of sakacin G solution, BHI agar, overnight at 37° C., Lb brevis DSM 20054): 0 mm
Radius of the inhibition halos (E. faecalis IP 5430): 2 mm
Radius of the inhibition halos (E. faecalis ENSAIA 636): 1 mm
Bacteriocin activity (in words) (Enterococcus faecalis): especially effective; also recorded: active
Bacteriocin activity (in words) (P. cerevisiae IP 5492; Pediococcus cerevisiae): especially effective
Radius of the inhibition halos (P. cerevisiae IP 5492; well test, 50 microliters of sakacin G solution, BHI agar, overnight at 37° C., P. cerevisiae IP 5492): 1 mm
Bacteriocin activity (in words) ([1]; Lactobacillus debrueckii): inactive
Radius of the inhibition halos ([1]; well test, 50 microliters of sakacin G solution, BHI agar, overnight at 37° C., Lb. Delbrueckii DSM 20081): 0 mm
Radius of the inhibition halos [2]: 0 mm
Radius of the inhibition halos [3]: 0 mm
Radius of the inhibition halos (Lc. lactis ATCC11454): 0 mm
Radius of the inhibition halos (L. inocua 8811): 3 mm
Radius of the inhibition halos [4]: 0 mm
Radius of the inhibition halos [5]: 0 mm
